Tested on: HaCaT cells
Assay: Reactive oxygen species detection by FACS analysis (carboxy-H2DCFDA), Example 8
Assay type: cell-based, human
Settings: for Median corrected Average: FACS Analysis - Reactive Oxygen Species
Protocol: Intracellular ROS generation was measured using the detection agent 5-(and-6)-carboxy-2',7'- dichlorodihydrofluorescein diacetate (carboxy-H2DCFDA). […] More specifically, total intracellular ROS generation was studied using 5-(and-6)-carboxy-2',7'-dichlorodihydrofluorescein diacetate (carboxy-H2DCFDA).
Powdered sunscreens were dissolved in PBS (Sigma-Aldrich, UK) at a concentration in which they can dissolve fully (0-0.3%). They were then applied (200ul/well) to wells of a 24 well plate containing a washed monolayer of cells. Cells were then irradiated and the sunscreen removed and washed post treatment.
Irradiation was carried out on cells in monolayers at a distance of 3 cm (Solar Simulator) in cold PBS or PBS + sunscreen. The plate was always placed on a cooling platform at 4°C to avoid overheating of the cells. Unirradiated samples were maintained in PBS for the same time and temperature as irradiated samples.
Detection of reactive oxygen species was performed by FACS analysis using 5-(and 6-)-carboxy-2,',7'-dichlorodihydrofluorescein diacetate (Carboy-H2-DCFDA) (Invitrogen, Paisley, UK). Carboy-H2-DCFDA is a non-fluorescent dye that is activated into a fluorescent dye by ROS cleaving acetate groups from the molecule.
Cells were grown in a 12 well plate washed twice in PBS and irradiated +/- sunscreens. Control cells were unirradiated and positive controls were treated with 0.03% hydrogen peroxide for 5 minutes. Cells were washed again twice in PBS and then 1ML of Carboy-H2-DCFDA diluted in PBS to a concentration of 5uM was added to each well and were incubated for 2 minutes in a cell culture incubator in the dark (95% air, 5% CO2, 37°C, humidified). Each well was then washed twice with PBS to remove any excess dye.
Cells were then trypsinised, centrifuged at 400g for 4 minutes at 4°C and resuspended in 0.5ml of PBS + 0.1%w/v BSA and transferred to FACS tubes. Samples were then analysed with a Becton Dickson CANTO 3. The viable proportion of the cell population was quantified by the addition of 2.5ug/ml of propidium iodide immediately before the analysis.

COC1=C(NCC(=O)O)CC(O)(CO)CC1=N (stereo not drawn) [palythine]
Median corrected Average (0.1% palythine): 36.35
Median corrected Average (0.3% palythine): 33.9
total intracellular ROS generated after exposure to UVA and UVB (carboxy-H2DCFDA): significantly reduce
